Source: PMC11449769, “Structure-based virtual screening towards the discovery of novel thrombin inhibitors with Anti-HCC activities” (Frontiers in Chemistry, 2024)
Entries after “also recorded” stand apart in the source; their conditions may differ. Structures can show the parent of a compound that is named as a salt. Where two headings read alike, the source gives them in different places.

Columns and labels:
platelets = assay: Thrombin-induced platelet aggregation in vitro; type: cell-based, rats; settings: drugs 3 mg/mL; thrombin 0.2 U/mL
Description: Blood was collected from rats and centrifuged for 10mins to obtain platelet-rich plasma, which was centrifuged again to collected platelets. The platelets were resus-pended and diluted to a concentration of 5 × 10^5/mL. PRP ([…]), and thrombin ([…]) were added to the platelet suspension in each group and incubated at 37°C. After incubation for 120 s, the reaction solution was well-mixed, and the same amount of thrombin ([…]) was added to a final concentration of 0.2 U/mL.

thrombin [1] = target: T1, thrombin (Homo sapiens, UniProt P00734); assay: In vitro thrombin inhibition assay (fluorogenic substrate Ac-FVR-AMC); type: biochemical
T1 construct: a light chain A composed of 39 amino acid residues and a heavy chain B composed of 259 amino acid residues; purchased China National Institute for the Control of Pharmaceutical and Biological Products
Description: Lyophilized thrombin, which was purchased from China National Institute for the Control of Pharmaceutical and Biological Products, was reconstituted (5.4 μg/mL), added to the diluted solution, and pre-incubated at 37°C for 10 min.
sample: initial velocity of compound group; VDMSO: initial velocity of blank group, treated with DMSO alone; Inhibition rate (%) = 100/[1 + 10 (LogIC50−X)h], h represents Hill coefficient.

thrombin [2] = target: T1, thrombin; assay: Thrombin time; settings: drugs 3 mg/mL, thrombin 0.2 U/mL
[3] = test system: Hep3B, HepG2, HCCLM3 and HUh7 cells; assay: Thrombin-induced accelerated proliferation of HCC cells (MTS); type: cell-based; settings: 0.5 μM drug, 0.5 U/mL thrombin; for thrombin-induced accelerated proliferation of tumor cells: 12 and 36 h, 4 liver cancer cell lines
Description: Cell lines Hep3B, HepG2, HCCLM3 and HUh7 were purchased from Shanghai Biolaf Biotechnology Co., Ltd., and certified by short tandem repeat profiling and mycoplasma and cell vitality testing. The proliferation rate was determined using a cell proliferation assay kit (TOPSCIENCE, C0005). Briefly, cells were seeded in 96-well plates at a concentration of 10,000 cells/well. MTS was added and incubated at 37°C for 2 h. The absorbance was measured at a wavelength of 490 nm. Three independent experiments were per-formed for each assay.

HepG2 tumor = HepG2 tumor model in BALB/c nude mice; settings: 28 days
Description: 20,000 HepG2 cells were injected into the fat pad of each female Balb/c mouse. The long and short diameters of the tumor were measured using a caliper. Medication was started when a rumor size of 100 mm^3 was reached. Sorafenib, ZXX-4, and sorafenib combined with ZXX-4 were administered for 28 days. The body weight and tumor size of the mice were measured twice a week. The mice were sacrificed after 28 days of treatment, the tumor weight was measured, and the number of metastases was counted by Indian ink staining of the lung.

BALB/c nude mice = assay: Single oral dose tolerance in BALB/c nude mice; type: in vivo; settings: single oral administration of 500 mg/kg, 24 h
[4] = thrombin 5.4 μg/mL, substrate 5 μM, 37°C, read-out: IC50

| Molecule | IC50 (thrombin [1]; [4]) | thrombin time (in words) (thrombin [2]) | platelet aggregation rate (platelets) | thrombin-induced accelerated proliferation of tumor cells [3] | other results |
| --- | --- | --- | --- | --- | --- |
| C=C(c1ccccc1OCc1cccc(Cl)c1)n1ccnc1 [ZXX-11, CROCONAZOLE] | – | significantly prolonged | less than 50% | reduced to different degrees | IC50 (thrombin [1]): 72 ± 20 nM |
| CCCCCCOC(=O)N=C(N)c1ccc(NCc2nc3cc(C(=O)N(CCC(=O)OCC)c4ccccn4)ccc3n2C)cc1 [dabigatran etexilate, reference compound] | – | – | less than 50% | reduced to different degrees | – |
| CNC(=O)c1cc(Oc2ccc(NC(=O)Nc3ccc(Cl)c(C(F)(F)F)c3)cc2)ccn1 [sorafenib, reference compound] | – | – | – | – | tumor weight (HepG2 tumor; ZXX-4 50 mg/kg/day and/or sorafenib 30 mg/kg/day, oral): slightly better than that of ZXX-4 |
| Saralasin acetate [ZXX-1] | 175 ± 18 nM | – | – | – | – |
| [Sarl, Ile8]-Angiotensin II acetate [ZXX-4] | 23 ± 5 nM | significantly prolonged | less than 50% | reduced to different degrees | platelet aggregation rate compared with dabigatran etexilate (platelets): not significant; thrombin time (thrombin [2]; 180 s = upper limit of detection): 180 s; relative activity on thrombin-induced proliferation [3]: highest activity, which was comparable to dabigatran etexilate; survival after single dose (BALB/c nude mice): survived; HepG2 tumor growth (HepG2 tumor; 50 mg/kg/day oral): inhibited HepG2 tumor growth; number of lung metastatic nodules (HepG2 tumor; ZXX-4 50 mg/kg/day and/or sorafenib 30 mg/kg/day, oral, Indian ink staining): com-parable to that of sorafenib; also recorded: reduced tumor metastasis; effect on the efficacy of sorafenib (HepG2 tumor; ZXX-4 50 mg/kg/day with sorafenib 30 mg/kg/day, oral): enhanced |

Now from value to molecule, other results behind:

| IC50 (thrombin [1]; [4]) | thrombin time (in words) (thrombin [2]) | Molecule | platelet aggregation rate (platelets) | thrombin-induced accelerated proliferation of tumor cells [3] | other results |
| --- | --- | --- | --- | --- | --- |
| 45 ± 10 nM | significantly prolonged | Fc1ccc(Cl)c(COc2cccc3onc(Nc4cccnc4)c23)c1 [ZXX-5, SMS2-IN-2] | less than 50% | reduced to different degrees | – |
| 98 ± 15 nM | – | NCCOc1cc(C(=O)Nc2cc(OCCN)c3ccccc3n2)nc(C(=O)Nc2cc(OCCN)c3ccccc3n2)c1 [ZXX-20, Pyridostatin Trihydrochloride] | – | – | – |
| 52 ± 9 nM | significantly prolonged | C-Reactive Protein (CRP) 201–206 acetate [ZXX-17] | less than 50% | reduced to different degrees | – |
| 68 ± 12 nM | significantly prolonged | LSKL [ZXX-2] | less than 50% | reduced to different degrees | – |
